Assay results: patent US11814652B2, “Pluripotent stem cell differentiation-promoting agent” (Oriental Yeast Co., Ltd., priority 2018, dated 2023)

Legend:
[1] = test system: iPS cells 201B7 strain; assay: Flow cytometry of Nestin/Pax6 ectodermal markers, differentiation-induction in medium with β-NMN (Example 2); format: cell-based, human; settings: ectodermal differentiation-inducing medium with β-NMN 0.1, 0.25 or 1 mM; 2nd, 4th, 7th day; versus absence of β-NMN
Procedure: The effect of β-NMN on the ectodermal differentiation-induction of the iPS cells was examined. The 201B7 strain was used as the iPS cells. The iPS cells were seeded in a 12-well plate coated with Matrigel (manufactured by Corning Incorporated) according to the manufacturer's protocol at 8×10^5 cells/well. The cells in the 12-well plate were cultured in a culture medium prepared by adjusting an ectodermal differentiation-inducing culture medium of “STEMdiff Trilineage Differentiation kit” (manufactured by STEMCELL Technologies) to have a final concentration of β-NMN of 0, 0.1, 0.25, or 1 mM, and a final concentration of Rock inhibitor of 10 μM for 1 day. From the 1st day after seeding, the medium was replaced every day with a culture medium obtained by removing the Rock inhibitor from the culture medium at the time of seeding. […] Then, the cells were stained with a fluorescence-labeled anti-Nestin antibody (manufactured by Biolegend, clone 10C2) and a fluorescence-labeled anti-Pax6 antibody (manufactured by Becton, Dickinson and Company, clone O18-1330). After washing the stained cells, a flow cytometer “FACScaliber” (manufactured by Becton, Dickinson and Company) was used to analyze the fluorescence intensity of the anti-Nestin antibody and the fluorescence intensity of the anti-Pax6 antibody in each sample. […]

[2] = test system: Human adipose tissue-derived mesenchymal stem cells; assay: Alizarin Red S staining after bone differentiation-induction of mesenchymal stem cells grown with β-NMN (Example 8); format: cell-based; settings: growth medium supplemented with 0.1 mM or 0.25 mM of β-NMN; 14 days after initiation of bone differentiation-induction; compared with 0 mM
Description: The effects of culturing in the presence of β-NMN before bone differentiation-induction of mesenchymal stern cells were examined. Human adipose tissue-derived mesenchymal stem cells (manufactured by Lonza, Cat #PT5006) were used as the mesenchymal stem cells. As a growth medium, a culture medium prepared by appropriately adding β-MNM to “MSCGM Bullet Kit” (manufactured by Lonza, Cat #PT3001) was used. As a bone differentiation-inducing culture medium, a culture medium prepared by adjusting an α-MEM culture medium to have a final concentration of fetal bovine serum of 10% by volume, a final concentration of dexamethasone of 10 nM, a final concentration of β-glycerophosphate of 10 mM, a final concentration of ascorbic acid of 50 μg/mL, and a final concentration of penicillin-streptomycin of 0.1%. The mesenchymal stem cells were seeded in a culture dish at 5×10^3 cells/cm^2 and statically cultured in a growth culture medium not containing β-MNM at 37° C., 5% by volume (CO2) for 1 day. From one day after seeding, the culture medium was replaced every 2 days with a growth culture medium adjusted to have a final concentration of β-MNM of 0, 0.1, or 0.25 mM. Further, when the cell density in the culture dish reached 80 to 90% of the confluent, the cells were passaged. […]

[3] = test system: iPS cells 201B7 strain; assay: Flow cytometry of Nestin/PAX6 after ectodermal differentiation-induction following undifferentiated culture with β-NMN (Example 7); format: cell-based, human; settings: β-NMN 0.25 or 1 mM before ectodermal differentiation-induction; 7th or 9th day; versus absence of β-NMN
Procedure: The effects of culturing in the presence of β-NMN before induction of differentiation on the ectodermal differentiation-induction of iPS cells was examined. As the iPS cells, the 201B7 strain was used. The iPS cells were cultured in a culture dish in the same manner as in Example 5, and when the confluent reached 70 to 80%, the iPS cells were detached from the culture dish and collected. The collected iPS cells were seeded at 3×10^5 cells/well in a 24-well plate coated with Matrigel (manufactured by Corning Incorporated) according to the manufacturer's protocol. The cells in the 24-well plate were cultured for 1 day in a culture medium prepared by removing β-NMN from the culture medium when culturing in the culture dish and adjusting to have a final concentration of Rock inhibitor of 10 μM. From the 1st day after seeding, the medium was replaced every day with a culture medium for ectodermal differentiation-induction of “STEMdiff Trilineage Differentiation kit” (manufactured by STEMCELL Technologies). In the same manner as in Example 2, the cells sampled on the 7th or 9th day after seeding were stained with a fluorescently labeled anti-Nestin antibody and a fluorescently labeled anti-PAX6 antibody, and a flow cytometer was used to analyze the fluorescence intensity of the anti-Nestin antibody and the fluorescence intensity of the anti-PAX6 antibody in each sample. […]

NC(=O)c1ccc[n+]([C@@H]2O[C@H](COP(=O)([O-])O)[C@@H](O)[C@H]2O)c1 [β-NMN, β-nicotinamide mononucleotide]
ratio of Nestin-positive Pax6-positive cells [1]: higher
calcium deposition (Alizarin Red S staining) [2]: strongly observed
ratio of Nestin-positive PAX6-positive cells [3]: no clear difference
